According to publication PMC8657912, “Substrate-Dependent Trans-Stimulation of Organic Cation Transporter 2 Activity” (International Journal of Molecular Sciences, 2021):
Read-outs that look alike come from different tables or passages of the source.

Assays:
human OCT2 [1] = molecular target: T1, human OCT2 (Homo sapiens, UniProt O15244); test: Uptake trans-stimulation assay of OCT2-mediated DiASP uptake in HEK-OCT2 cells; assay type: cell-based; parameters: host or cells: HEK293 (HEK-OCT2); details: for Trans-modulation of OCT2-mediated DiASP uptake (in words): HEK-OCT2 cells preloaded 30 min with substrate, 0.01–10 mM or 0.1–100 µM range
T1 sequence (O15244 1-555): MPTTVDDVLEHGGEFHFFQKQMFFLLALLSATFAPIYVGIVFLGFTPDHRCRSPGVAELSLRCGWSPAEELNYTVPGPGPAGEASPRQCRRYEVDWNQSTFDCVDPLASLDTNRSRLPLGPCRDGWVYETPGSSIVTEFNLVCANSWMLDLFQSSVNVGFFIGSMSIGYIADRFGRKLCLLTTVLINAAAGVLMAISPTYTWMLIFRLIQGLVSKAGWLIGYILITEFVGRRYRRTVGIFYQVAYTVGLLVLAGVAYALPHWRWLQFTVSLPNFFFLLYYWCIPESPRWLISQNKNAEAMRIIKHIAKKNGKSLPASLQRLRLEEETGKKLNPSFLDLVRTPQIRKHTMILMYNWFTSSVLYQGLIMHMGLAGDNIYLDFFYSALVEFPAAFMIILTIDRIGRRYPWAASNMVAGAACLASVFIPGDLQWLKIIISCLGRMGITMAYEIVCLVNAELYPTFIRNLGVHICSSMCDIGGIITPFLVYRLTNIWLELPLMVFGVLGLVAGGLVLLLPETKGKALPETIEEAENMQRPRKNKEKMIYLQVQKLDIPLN
Protocol: Uptake trans-stimulation assays were performed as schematically depicted in Figure 4.
Figure 4 Schematic representation of the various steps of the trans-stimulation assay performed for investigating OCT2 substrates (created with biorender.com). Step 1 corresponds to the initial incubation of cells without (Control) or with candidate substrate for 30 min at 37 °C. Step 2 consists of the incubation of cells with the reference tracer substrate (DiASP) for 5 min at 37 °C. Step 3 is the measurement of cellular accumulation of DiASP through spectrofluorimetry.
(§1) They were cultured in Dulbecco’s modified Eagle medium (DMEM) (Life Technologies, Carlsbad, CA, USA), supplemented with 10% (vol/vol) fetal calf serum, 10 IU/mL penicillin, 10 μg/mL streptomycin, 1% non-essential amino acids, and 1 μg/mL insulin, as already reported.
OCT2 trans-stimulation assays were performed through monitoring cellular uptake of the tracer substrate DiASP. As schematically depicted in Figure 4, HEK-OCT2 cells were first incubated in the absence (control) or presence of different concentrations of OCT2 substrates for 30 min at 37 °C in the transport assay medium described above. After washing with PBS, cells were re-incubated with 10 µM DiASP for 5 min. Cellular accumulation of the fluorescence dye was next determined by spectrofluorimetry, as reported above. Data were commonly expressed as % of DiASP uptake in control cells, set at 100%, or as fluorescence arbitrary units (FAU)/mg protein.

human OCT2 [2] = molecular target: T1, human OCT2; test: Cis-inhibition of OCT2-mediated DiASP uptake in HEK-OCT2 cells
Protocol: as §1
Cis-inhibition of OCT2 activity was analysed as previously described. Briefly, HEK-OCT2 cells were incubated with 10 µM DiASP, in the absence (control) of the presence of 100 µM amitriptyline (used here as a reference inhibitor of OCT2 activity) or of various concentrations of the OCT2 substrates, for 5 min. The transport assay medium consisted of 5.3 mM KCl, 1.1 mM KH2PO4, 0.8 mM MgSO4, 1.8 mM CaCl2, 11 mM dextrose, 10 mM HEPES, and 136 mM NaCl, adjusted to pH = 7.4. Next, cells were washed with phosphate-buffered saline (PBS) and lysed in distilled water. Intracellular accumulation of DiASP was then determined by spectrofluorimetry using a PerkinElmer Enspire spectrofluorometer (Waltham, MA, USA); excitation and emission wavelengths were 485 nm and 607 nm, respectively. DiASP accumulation values were thereafter normalized to total protein content, determined by the Bradford method.
IC50 values of OCT2 substrates towards OCT2-mediated uptake of DiASP and the corresponding 95% confidence intervals were determined from nonlinear regression of concentration-response data, based on the four-parameter logistic function. They were calculated using Prism 9.3 software (GraphPad Software, San Diego, CA, USA), through the following Equation (2):(2) A = 100/1 + 10^OCT2 substrate − LogIC50 × Hill slope where A = the percentage of transporter activity for a given concentration of OCT2 substrate determined as described in Equation (1), [OCT2 substrate] = OCT2 substrate concentration in the transport assay medium, and Hill slope = a coefficient describing the steepness of the curve.

OCT3 (SLC22A3) = system: OCT3 (SLC22A3); parameters: method as in PMID 12538837; details: cited from earlier work
OCT2 = details: cited from earlier work; for Trans-stimulation of OCT2 activity: radiolabelled MPP+ as tracer substrate; for Trans-stimulation of OCT2-mediated MPP+ uptake: MPP+ as tracer
HEK-MOCK cells = test: Trans-stimulation assay of DiASP uptake in control HEK-MOCK cells; assay type: cell-based, human; details: data not shown
[3] = HEK-OCT2 cells preloaded 30 min 37 °C, washed, then 10 µM DiASP 5 min
[4] = read-out: IC50 towards OCT2-mediated uptake of DiASP (cis-inhibition), HEK-OCT2 cells, 10 µM DiASP, 5 min, 37 °C, 95% CI in brackets

Row | SMILES | Trans-modulation of OCT2-mediated DiASP uptake (in words) (human OCT2 [1]) | IC50 (human OCT2 [2]) | Lowest trans-inhibiting concentration towards DiASP uptake (human OCT2 [1]; [3]) | also measured
1 | CC(=O)OCC[N+](C)(C)C [Acetylcholine, acetylcholine] | trans-stimulate | 530 µM |  | 
2 | NCCCCN=C(N)N [Agmatine, agmatine] | trans-stimulate | 410 µM | 10 mM | Trans-stimulation of OCT3 activity (OCT3 (SLC22A3)): trans-stimulate; Loading concentration that significantly trans-stimulates DiASP uptake (human OCT2 [1]; [3]): 0.1 mM
3 | CCN1CCCC1CNC(=O)c1cc(S(=O)(=O)CC)c(N)cc1OC (centres unmarked) [Amisulpride, amisulpride] |  | 40 µM |  | 
4 | C[N+](C)(C)CCO [Choline, choline] | trans-stimulate | 1330 µM |  | Loading concentration that significantly trans-stimulates DiASP uptake (human OCT2 [1]; [3]): 1 mM; Trans-stimulation of OCT2 activity (OCT2): trans-stimulate
5 | CN/C(=N/CCSCc1nc[nH]c1C)NC#N [Cimetidine, cimetidine] | failed to trans-stimulate | 79.6 µM | 10 mM | Trans-stimulation of OCT2-mediated MPP+ uptake (OCT2): failed to trans-stimulate
6 | NCCc1ccc(O)c(O)c1 [Dopamine, dopamine] |  | 2390 µM | 10 mM | 
7 | CNC[C@H](O)c1ccc(O)c(O)c1 [Epinephrine, epinephrine] |  | 1490 µM | 1 mM | 
8 | Nc1ccn([C@@H]2CS[C@H](CO)O2)c(=O)n1 [Lamivudine, lamivudine] |  | 1900 µM |  | Lowest trans-inhibiting concentration towards DiASP uptake (human OCT2 [1]): 10 mM
9 | C[n+]1ccc(-c2ccccc2)cc1 [MPP^+, 1-methyl-4-phenyl pyridinium] | failed to trans-stimulate |  |  | IC50 (human OCT2 [2]; [4]): 0.91 µM; Trans-stimulation of OCT2-mediated MPP+ uptake (OCT2): failed to trans-stimulate
10 | CN(C)C(=N)N=C(N)N [Metformin, metformin] | trans-stimulate | 1140 µM |  | Trans-stimulation of DiASP uptake in control HEK-MOCK cells (HEK-MOCK cells): failed to significantly trans-stimulate; Trans-stimulation of OCT2 activity (OCT2): trans-stimulate
11 | COCCn1c2c([n+](Cc3cnccn3)c1C)C(=O)c1ccccc1C2=O [Sepantronium, sepantronium] |  | 7.04 µM | 0.001 mM | 
12 | NCCc1c[nH]c2ccc(O)cc12 [Serotonin, serotonin] |  | 180 µM | 1 mM | 
13 | CC[N+](CC)(CC)CC [TEA, tetra-ethylammonium] |  |  |  | IC50 (human OCT2 [2]; [4]): 180 µM
14 | Cc1ncc(C[n+]2csc(CCO)c2C)c(N)n1 [Thiamine, thiamine] |  | 270 µM | 10 mM | 
15 | CN(C)CCC=C1c2ccccc2CCc2ccccc21 [amitriptyline] |  |  |  | Effect on metformin-stimulated uptake of DiASP (human OCT2 [1]; 100 µM amitriptyline during DiASP step, cells preloaded with 10 mM metformin 30 min): fully suppressed; Effect on uptake of DiASP in HEK-OCT2 cells not preloaded with metformin (human OCT2 [2]; 100 µM amitriptyline, 10 µM DiASP 5 min 37 °C): abolished
